Assay results as given in patent publication US11236087B2, “Highly active pyrazolo-piperidine substituted indole-2-carboxamides active against the hepatitis B virus (HBV)” (AiCuris GmbH & Co. KG, priority 2017, dated 2022).

Legend:
HBV core protein = target: T1, HBV core protein (UniProt P03146); test: Biochemical capsid assembly assay (fluorescence quenching); design: species or system hepatitis B virus; details: read-out: Assembly Activity (IC50); BODIPY-FL labelled core protein, 300 μM NaCl, read 6 min after start
T1 construct: fused on or other part: BODIPY-FL maleimide label on the C-terminal Cys150
Procedure, shortened: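 Assembly-induced fluorescence quenching (477/525 nm) was measured 6 min after NaCl addition ([…]), against 2.5 M and 0 M NaCl controls. The labelled C150 core dimer (truncated at 149) at 1.0-2.0 μM in HEPES pH 7.5 was tested with eight half-log compound dilutions, top 100, 31.6 or 10 μM. EC50 was obtained by non-linear fit from triplicates run three times.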

[1] = Cell viability assay (AlamarBlue) in HepAD38 cells; details: human
HBV = test: Determination of HBV DNA from the supernatants of HepAD38 cells (anti-HBV activity); format: cell-based, hepatitis B virus; details: Hepatitis B virus, 144 h; HBV DNA in HepAD38 supernatant, day 6, qPCR; read-out: Cell Activity (EC50)
Procedure, shortened: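 Supernatant viral DNA was measured by LightCycler qPCR, calibrated with pCH-9/3091 plasmid, 6 days after tetracycline-free HepAD38 cultures received half-log serial compound dilutions; untreated and tetracycline-treated cells served as controls; EC50 was fitted by non-linear regression.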

T1 sequence (P03146 whole entry, looked up, the tested form may be a part): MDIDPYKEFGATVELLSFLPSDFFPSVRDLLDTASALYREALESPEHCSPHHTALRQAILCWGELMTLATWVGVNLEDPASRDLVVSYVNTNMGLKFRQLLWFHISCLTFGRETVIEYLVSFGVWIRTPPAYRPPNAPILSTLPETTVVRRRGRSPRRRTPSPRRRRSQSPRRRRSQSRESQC

O=C(c1cc2ccccc2[nH]1)N1CCc2[nH]nc(C(=O)N3C[C@@H]4[C@@H](CO)[C@@H]4C3)c2C1 [Example 175, [(±)-3-[5-(1H-indole-2-carbonyl)-1H,4H,5H,6H,7H-pyrazolo[4,3-c]pyridine-3-carbonyl]-3-azabicyclo[3.1.0]hexan-6-yl]methanol]
IC50 (HBV core protein): 5 to 10 µM | CC50 at 6 days [1]: > 10 µM | EC50 (HBV): 1000 to 25000 nM

O=C(c1cc2ccccc2[nH]1)N1CCc2[nH]nc(C(=O)N3C[C@@H]4[C@@H](O)[C@@H]4C3)c2C1 [Example 176, (±)-3-[5-(1H-indole-2-carbonyl)-1H,4H,5H,6H,7H-pyrazolo[4,3-c]pyridine-3-carbonyl]-3-azabicyclo[3.1.0]hexan-6-ol]
IC50 (HBV core protein): 5 to 10 µM | CC50 at 6 days [1]: > 10 µM | EC50 (HBV): 1000 to 25000 nM

CN(Cc1ccccc1)C(=O)c1n[nH]c2c1CN(C(=O)c1cc3ccccc3[nH]1)CC2 [Example 178, N-benzyl-5-(1H-indole-2-carbonyl)-N-methyl-1H4H,5H,6H,7H-pyrazolo[4,3-c]pyridine-3-carboxamide]
IC50 (HBV core protein): < 5 µM | CC50 at 6 days [1]: > 10 µM | EC50 (HBV): < 1000 nM

O=C(c1cc2ccccc2[nH]1)N1CCc2[nH]nc(C(=O)N3CCC[C@H]3CO)c2C1 [Example 180, [(2S)-1-[5-(1H-indole-2-carbonyl)-1H,4H,5H,6H,7H-pyrazolo[4,3-c]pyridine-3-carbonyl]pyrrolidin-2-yl]methanol]
IC50 (HBV core protein): < 100 µM | CC50 at 6 days [1]: > 10 µM | EC50 (HBV): 1000 to 25000 nM

O=C(c1cc2ccccc2[nH]1)N1CCc2[nH]nc(C(=O)N3Cc4cn[nH]c4C3)c2C1 [Example 181, 2-(3-{1H,4H,5H,6H-pyrrolo[3,4-c]pyrazole-5-carbonyl}-1H,4H,5H,6H,7H-pyrazolo[4,3-c]pyridine-5-carbonyl)-1H-indole]
IC50 (HBV core protein): 5 to 10 µM | CC50 at 6 days [1]: > 10 µM | EC50 (HBV): 1000 to 25000 nM

O=C(c1cc2ccccc2[nH]1)N1CCc2[nH]nc(C(=O)N3CCCC34CC4)c2C1 [Example 184, 2-(3-{4-azaspiro[2.4]heptane-4-carbonyl}-1H,4H,5H,6H,7H-pyrazolo[4,3-c]pyridine-5-carbonyl)-1H-indole]
IC50 (HBV core protein): < 5 µM | CC50 at 6 days [1]: > 10 µM | EC50 (HBV): < 1000 nM

CCN(C(=O)c1n[nH]c2c1CN(C(=O)c1cc3ccccc3[nH]1)CC2)C1COC1 [Example 185, N-ethyl-5-(1H-indole-2-carbonyl)-N-(oxetan-3-yl)-1H,4H,5H,6H,7H-pyrazolo[4,3-c]pyridine-3-carboxamide]
IC50 (HBV core protein): 5 to 10 µM | CC50 at 6 days [1]: > 10 µM | EC50 (HBV): < 1000 nM

CN(C(=O)c1n[nH]c2c1CN(C(=O)c1cc3ccccc3[nH]1)CC2)C1COC1 [Example 188, 5-(1H-indole-2-carbonyl)-N-methyl-N-(oxetan-3-yl)-1H,4H,5H,6H,7H-pyrazolo[4,3-c]pyridine-3-carboxamide]
IC50 (HBV core protein): 5 to 10 µM | CC50 at 6 days [1]: > 10 µM | EC50 (HBV): < 1000 nM

CN(C(=O)c1n[nH]c2c1CN(C(=O)c1cc3ccccc3[nH]1)CC2)C1CCOC1 (stereo not drawn) [Example 189, 5-(1H-indole-2-carbonyl)-N-methyl-N-(oxolan-3-yl)-1H4H,5H,6H,7H-pyrazolo[4,3-c]pyridine-3-carboxamide]
IC50 (HBV core protein): < 100 µM | CC50 at 6 days [1]: > 10 µM | EC50 (HBV): 1000 to 25000 nM

O=C(c1cc2ccccc2[nH]1)N1CCc2[nH]nc(C(=O)N3CCC(F)(F)CC3)c2C1 [Example 190, 2-[3-(4,4-difluoropiperidine-1-carbonyl)-1H,4H,5H,6H,7H-pyrazolo[4,3-c]pyridine-5-carbonyl]-1H-indole]
IC50 (HBV core protein): < 5 µM | CC50 at 6 days [1]: > 10 µM | EC50 (HBV): < 1000 nM

CC(C)(C)OC(=O)N[C@@H]1CCN(C(=O)c2n[nH]c3c2CN(C(=O)c2cc4ccccc4[nH]2)CC3)C1 [Example 191, tert-butyl N-[(3R)-1-[5-(1H-indole-2-carbonyl)-1H,4H,5H,6H,7H-pyrazolo[4,3-c]pyridine-3-carbonyl]pyrrolidin-3-yl]carbamate]
IC50 (HBV core protein): < 5 µM | CC50 at 6 days [1]: > 10 µM | EC50 (HBV): 1000 to 25000 nM

CN(C(=O)c1n[nH]c2c1CN(C(=O)c1cc3ccccc3[nH]1)CC2)C1CCCOC1 (stereo not drawn) [Example 193, 5-(1H-indole-2-carbonyl)-N-methyl-N-(oxan-3-yl)-1H,4H,5H,6H,7H-pyrazolo[4,3-c]pyridine-3-carboxamide]
IC50 (HBV core protein): < 100 µM | CC50 at 6 days [1]: > 10 µM | EC50 (HBV): 1000 to 25000 nM

CC(C)(C)OC(=O)N[C@H]1CCN(C(=O)c2n[nH]c3c2CN(C(=O)c2cc4ccccc4[nH]2)CC3)C1 [Example 194, tert-butyl N-[(3S)-1-[5-(1H-indole-2-carbonyl)-1H,4H,5H,6H,7H-pyrazolo[4,3-c]pyridine-3-carbonyl]pyrrolidin-3-yl]carbamate]
IC50 (HBV core protein): < 100 µM | CC50 at 6 days [1]: > 10 µM | EC50 (HBV): 1000 to 25000 nM

O=C(c1cc2ccccc2[nH]1)N1CCc2[nH]nc(C(=O)N3CCOCC34CC4)c2C1 [Example 195, 2-(3-{7-oxa-4-azaspiro[2.5]octane-4-carbonyl}-1H,4H,5H,6H,7H-pyrazolo[4,3-c]pyridine-5-carbonyl)-1H-indole]
IC50 (HBV core protein): 5 to 10 µM | CC50 at 6 days [1]: > 10 µM | EC50 (HBV): < 1000 nM

CN(OCCO)C(=O)c1n[nH]c2c1CN(C(=O)c1cc3c(Cl)cccc3[nH]1)CC2 [Example 196, 5-(4-chloro-1H-indole-2-carbonyl)-N-(2-hydroxyethoxy)-N-methyl-1H,4H,5H,6H,7H-pyrazolo[4,3-c]pyridine-3-carboxamide]
IC50 (HBV core protein): < 5 µM | CC50 at 6 days [1]: > 10 µM | EC50 (HBV): < 1000 nM

Cc1cccc2[nH]c(C(=O)N3CCc4[nH]nc(C(=O)N(C)OCCO)c4C3)cc12 [Example 197, N-(2-hydroxyethoxy)-N-methyl-5-(4-methyl-1H-indole-2-carbonyl)-1H,4H,5H,6H,7H-pyrazolo[4,3-c]pyridine-3-carboxamide]
IC50 (HBV core protein): < 5 µM | CC50 at 6 days [1]: > 10 µM | EC50 (HBV): < 1000 nM

CN(OCCO)C(=O)c1n[nH]c2c1CN(C(=O)c1cc3ccccc3[nH]1)CC2 [Example 198, N-(2-hydroxyethoxy)-5-(1H-indole-2-carbonyl)-N-methyl-1H,4H,5H,6H,7H-pyrazolo[4,3-c]pyridine-3-carboxamide]
IC50 (HBV core protein): < 5 µM | CC50 at 6 days [1]: > 10 µM | EC50 (HBV): < 1000 nM

CN(C(=O)c1n[nH]c2c1CN(C(=O)c1cc3ccccc3[nH]1)CC2)C1CCOCC1 [Example 199, 5-(1H-indole-2-carbonyl)-N-methyl-N-(oxan-4-yl)-1H,4H,5H,6H,7H-pyrazolo[4,3-c]pyridine-3-carboxamide]
IC50 (HBV core protein): < 100 µM | CC50 at 6 days [1]: > 10 µM | EC50 (HBV): 1000 to 25000 nM

[2H]C([2H])([2H])N(C(=O)c1n[nH]c2c1CN(C(=O)c1cc3ccccc3[nH]1)CC2)C1(COC)CC1 [Example 201, 5-(1H-indole-2-carbonyl)-N-[1-(methoxymethyl)cyclopropyl]-N-(2H3)methyl-1H,4H,5H,6H,7H-pyrazolo[4,3-c]pyridine-3-carboxamide]
IC50 (HBV core protein): < 5 µM | CC50 at 6 days [1]: > 10 µM | EC50 (HBV): < 1000 nM

COCC1(NC(=O)c2n[nH]c3c2CN(C(=O)c2cc4ccccc4[nH]2)CC3)CC1 [Example 202, 5-(1H-indole-2-carbonyl)-N-[1-(methoxymethyl)cyclopropyl]-1H,4H,5H,6H,7H-pyrazolo[4,3-c]pyridine-3-carboxamide]
IC50 (HBV core protein): < 5 µM | CC50 at 6 days [1]: > 10 µM | EC50 (HBV): < 1000 nM

O=C(c1cc2ccccc2[nH]1)N1CCc2[nH]nc(OC3CCCC3)c2C1 [Example 203, 2-[3-(cyclopentyloxy)-1H,4H,5H,6H,7H-pyrazolo[4,3-c]pyridine-5-carbonyl]-1H-indole]
IC50 (HBV core protein): 5 to 10 µM | CC50 at 6 days [1]: > 10 µM | EC50 (HBV): < 1000 nM

COCC1(N(C)C(=O)c2n[nH]c3c2CN(C(=O)c2cc4cc(F)ccc4[nH]2)CC3)CC1 [Example 204, 5-(5-fluoro-1H-indole-2-carbonyl)-N-[1-(methoxymethyl)cyclopropyl]-N-methyl-1H,4H,5H,6H,7H-pyrazolo[4,3-c]pyridine-3-carboxamide]
IC50 (HBV core protein): < 5 µM | CC50 at 6 days [1]: > 10 µM | EC50 (HBV): < 1000 nM

COCC1(N(C)C(=O)c2n[nH]c3c2CN(C(=O)c2cc4c(C(C)(F)F)cc(F)cc4[nH]2)CC3)CC1 [Example 205, 5-[4-(1,1-difluoroethyl)-6-fluoro-1H-indole-2-carbonyl]-N-[1-(methoxymethyl)cyclopropyl]-N-methyl-1H,4H,5H,6H,7H-pyrazolo[4,3-c]pyridine-3-carboxamide]
IC50 (HBV core protein): < 5 µM | CC50 at 6 days [1]: > 10 µM | EC50 (HBV): < 1000 nM

[2H]C([2H])([2H])OCC1(N(C)C(=O)c2n[nH]c3c2CN(C(=O)c2cc4ccccc4[nH]2)CC3)CC1 [Example 206, 5-(1H-indole-2-carbonyl)-N-{1-[(2H3)methoxymethyl]cyclopropyl}-N-methyl-1H,4H,5H,6H,7H-pyrazolo[4,3-c]pyridine-3-carboxamide]
IC50 (HBV core protein): < 5 µM | CC50 at 6 days [1]: > 10 µM | EC50 (HBV): < 1000 nM

CCOCC1(N(C)C(=O)c2n[nH]c3c2CN(C(=O)c2cc4ccccc4[nH]2)CC3)CC1 [Example 207, N-[1-(ethoxymethyl)cyclopropyl]-5-(1H-indole-2-carbonyl)-N-methyl-1H,4H,5H,6H,7H-pyrazolo[4,3-c]pyridine-3-carboxamide]
IC50 (HBV core protein): < 5 µM | CC50 at 6 days [1]: > 10 µM | EC50 (HBV): < 1000 nM
